Where two headings read alike, the source gives them in different places. Marks after values point to notes of the source that are not given here.
What was measured:
[1] = test system: normal, non-tumor bearing mice; format: in vivo
Experimental: A second study was performed to determine whether RDP58 also limits 5-FU induced diarrhea. Normal, non-tumor bearing mice were treated with 100 mg/kg 5-FU daily for two consecutive days and were concurrently given 10 mg/kg RDP58 orally or water only. […] All ten animals in the control group had diarrhea compared to only three of ten RDP58 treated animals.

tumor bearing mice = test: MTD vs 2xMTD CPT-11 with or without RDP58: mortality and tumor response
[2] = test system: mice bearing CT-26 tumors; test: CPT-11 efficacy and treatment related mortality with or without RDP58 in tumor model; format: in vivo; conditions: for reduction in tumor weight: CPT-11 100 mg/kg qdx3, three regimens
Experimental: To determine whether RDP58 altered the efficacy of CPT-11 therapy, mice bearing CT-26 tumors were treated with three regimens of CPT-11 at 100 mg/kg qdx3 and given 5.0 mg/kg RDP58 orally.

[3] = test system: normal non-tumor bearing mice; test: CPT-11 dose escalation (LD50) with or without oral RDP58; format: in vivo
Experimental: (§1) To determine whether concurrent oral RDP58 treatment can increase the maximum dose of CPT-11 without a concomitant increase in mortality, normal non-tumor bearing mice were injected qdx3 with 0, 100, 200, 300, or 400 mg/kg CPT-11 injected i.p. qdx3 on Days 0, 1 and 2. RDP58 was given orally at 10 mg/kg in the drinking water starting on Day 3. Mice were monitored for body weight loss, incidence of diarrhea and mortality until end of study on Day 12.

[4] = test system: normal, non-tumor bearing mice; test: CPT-11-induced gastrointestinal toxicity and mortality, RDP58 dose finding study
Experimental: In a dose finding study, normal, non-tumor bearing mice were injected intraperitoneally with 200 mg/kg CPT-11 once a day for three consecutive days and concurrently given 0, 2.5, 5.0 or 10 mg/kg RDP58 orally.

[5] = MTD vs 2xMTD CPT-11 with or without RDP58: mortality and tumor response; conditions: mouse, in vivo
[6] = CPT-11 dose escalation (LD50) with or without oral RDP58; format: in vivo, mice; conditions: mouse, in vivo, intraperitoneal; without RDP58, as restated in Example 7
Experimental: as §1

[7] = CPT-11 100 mg/kg qdx3 with 5.0 mg/kg RDP58 orally
[8] = RDP58 orally 10 mg/kg in the drinking water
[9] = RDP58 10 mg/kg orally with 5-FU 100 mg/kg
[10] = RDP58 10 mg/kg/day orally with 5-FU 100 mg/kg/dose
[11] = RDP58 2.5 mg/kg/day orally with CPT-11 200 mg/kg/dose
[12] = RDP58 5 mg/kg/day orally with CPT-11 200 mg/kg/dose
[13] = RDP58 10 mg/kg/day orally with CPT-11 200 mg/kg/dose
[14] = CPT-11 200 mg/kg/dose i.p. once a day for three days, RDP58 none

## O=c1[nH]cc(F)c(=O)[nH]1 [5-FU, 5-Fluorouracil, reference compound]
[1]; 5-FU 100 mg/kg/dose daily for two days, RDP58 none
  Toxicity (%) Mortality: 90(9/10) %
[1]; mouse, in vivo, 12 days
  survival rate: 10%

## Arg-nL-nL-nL-Arg-nL-nL-nL-Gly-Tyr [RDP58]
Tumor bearing mice; 2×MTD CPT-11 + 10 mg/ml RDP58
  animals that survived the complete treatment regimen: 83%
[2]; with 5.0 mg/kg RDP58 orally
  reduction in tumor weight: 55%
[2]; [7]
  survival: significantly increased
  treatment related deaths: No treatment related deaths
[3]; 10 mg/kg RDP58, as restated in Example 7
  LD50 of CPT-11 with RDP58: ~720 mg/kg total dose
[3]; [8]
  LD50 of CPT-11 with administration of RDP58: approximately 725 mg/kg/total dose
  increase of CPT-11 LD50 by a factor: about 1.6 ×
[1]; [9]
  animals that had diarrhea: three of ten
  total body weight loss: significant reduction
[1]; [10]
  Maximum weight loss: 13.9 ± 3.8b
  Toxicity (%) Diarrhea: 30(3/10) %
  Toxicity (%) Mortality: 10(1/10) %
[1]; twelve days after 5-FU administration, RDP58 10 mg/kg orally
  survival rate: 90%
[4]; 5.0 and 10.0 mg/kg RDP58 with CPT-11 200 mg/kg
  maximum total body weight lost compared to RDP58 untreated mice: reduction
[4]; RDP58 0, 2.5, 5.0 or 10 mg/kg orally with CPT-11 200 mg/kg
  survival twelve days after the first injection of CPT-11: dose dependent increase
[4]; [11]
  Maximum weight loss: 27.8 ± 3.7
  Toxicity (%) Diarrhea: 67 (10/15)^b %
  Toxicity (%) Mortality: 60 (9/15) %
[4]; [12]
  Maximum weight loss: 25.6 ± 4.4^a
  Toxicity (%) Diarrhea: 40 (12/30)^b %
  Toxicity (%) Mortality: 23 (7/30) %
[4]; [13]
  Maximum weight loss: 24.6 ± 1.9^a
  Toxicity (%) Diarrhea: 33 (5/15)^b %
  Toxicity (%) Mortality: 7 (1/15) %
[4]; RDP58 group with CPT-11 200 mg/kg
  mice died from CPT-11 treatment: one of fifteen
[4]; mice receiving RDP58 with CPT-11 200 mg/kg
  appearance of diarrhea: dose dependent decrease

## CCc1c2c(nc3ccc(OC(=O)N4CCC(N5CCCCC5)CC4)cc13)-c1cc3c(c(=O)n1C2)COC(=O)[C@]3(O)CC [CPT-11, irinotecan, reference compound]
Tumor bearing mice; 2×MTD CPT-11 (1200 mg/kg)
  animals that survived the complete treatment regimen: 50%
Tumor bearing mice; CPT-11 at MTD 600 mg/kg
  animals died from the CPT-11: No animals in this treatment group died
[5]
  MTD at 12 days: 600 mg/kg
[2]; RDP58 untreated
  reduction in tumor weight: 61%
[2]; control group, CPT-11 100 mg/kg qdx3 without RDP58
  mortality: 40%
[3]; CPT-11 i.p. qdx3 alone, until Day 12
  LD50: approximately 450 mg/kg/total dose
[6]
  LD50 at 12 days: ~465 mg/kg
[4]; [14]
  Maximum weight loss: 29.4 ± 4.3
  Toxicity (%) Diarrhea: 97 (29/30)^b %
  Toxicity (%) Mortality: 73 (22/30) %
[4]; control group, CPT-11 200 mg/kg without RDP58
  mice died from CPT-11 treatment: 22 of 30

Reference: patent publication US20040110687A1, “Methods and compositions for treating gastrointestinal toxicity induced by cytoablative therapy” (priority 2002, published 2004)
